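Briefly, cells in 96-well plates were exposed to five compound concentrations for 48 h, and endpoints were estimated by linear interpolation. TGI denotes the concentration required for complete inhibition of growth.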
What was measured:
Assay in all cases: NCI-60 cell line screen, 48 h
OVCAR-3 ovarian = system: OVCAR-3 ovarian
TK-10 renal = system: TK-10 renal
SNB-75 CNS = system: SNB-75 CNS
PC-3 prostate = system: PC-3 prostate
RXF 393 renal = system: RXF 393 renal
NCI/ADR-RES ovarian = system: NCI/ADR-RES ovarian
M14 melanoma = system: M14 melanoma
MOLT-4 leukemia = system: MOLT-4 leukemia
NCI-H460 lung = system: NCI-H460 lung
SK-MEL-5 melanoma = system: SK-MEL-5 melanoma
NCI-H226 lung = system: NCI-H226 lung
SNB-19 CNS = system: SNB-19 CNS
SW-620 colon = system: SW-620 colon
CAKI-1 renal = system: CAKI-1 renal
CCRF-CEM leukemia = system: CCRF-CEM leukemia
HCT-116 colon = system: HCT-116 colon
HCT-15 colon = system: HCT-15 colon
HT29 colon = system: HT29 colon
HOP-62 NSCLC = system: HOP-62 NSCLC
UACC-257 melanoma = system: UACC-257 melanoma
IGROV1 ovarian = system: IGROV1 ovarian
KM12 colon = system: KM12 colon
MDA-MB-231 breast = system: MDA-MB-231 breast
MALME-3M melanoma = system: MALME-3M melanoma
786-0 renal = system: 786-0 renal
RPMI-8226 leukemia = system: RPMI-8226 leukemia
OVCAR-4 ovarian = system: OVCAR-4 ovarian
SK-MEL-28 melanoma = system: SK-MEL-28 melanoma
SK-OV-3 ovarian = system: SK-OV-3 ovarian
NCI-H522 lung = system: NCI-H522 lung
SR leukemia = system: SR leukemia
BT-549 breast = system: BT-549 breast
OVCAR-5 ovarian = system: OVCAR-5 ovarian
ACHN renal = system: ACHN renal
U251 CNS = system: U251 CNS
OVCAR-8 ovarian = system: OVCAR-8 ovarian
DU-145 prostate = system: DU-145 prostate
SN12C renal = system: SN12C renal
LOX IMVI melanoma = system: LOX IMVI melanoma
MDA-MB-435 = system: MDA-MB-435
A498 renal = system: A498 renal
UO-31 renal = system: UO-31 renal
UACC-62 melanoma = system: UACC-62 melanoma
EKVX NSCLC = system: EKVX NSCLC
MCF7 breast = system: MCF7 breast
SF-268 CNS = system: SF-268 CNS
K-562 leukemia = system: K-562 leukemia
SF-295 CNS = system: SF-295 CNS
NCI-H23 lung = system: NCI-H23 lung
HCC-2998 colon = system: HCC-2998 colon
COLO 205 colon = system: COLO 205 colon
A549 NSCLC = system: A549 NSCLC
SF-539 CNS = system: SF-539 CNS
HS 578T breast = system: HS 578T breast
HOP-92 NSCLC = system: HOP-92 NSCLC
HL-60(TB) leukemia = system: HL-60(TB) leukemia
T-47D breast = system: T-47D breast
SK-MEL-2 melanoma = system: SK-MEL-2 melanoma

Q: What does the source list for `CC1=C(C)SC(=C2Sc3nc(O)[nH]c(=O)c3S2)S1`?
A: TGI (OVCAR-3 ovarian): > 100 µM; TGI (TK-10 renal): > 100 µM; TGI (SNB-75 CNS): > 100 µM; TGI (PC-3 prostate): > 100 µM; TGI (RXF 393 renal): > 100 µM; TGI (NCI/ADR-RES ovarian): > 100 µM; TGI (M14 melanoma): 94.1 µM; TGI (MOLT-4 leukemia): > 100 µM; TGI (NCI-H460 lung): > 100 µM; TGI (SK-MEL-5 melanoma): > 100 µM; TGI (NCI-H226 lung): > 100 µM; TGI (SNB-19 CNS): > 100 µM; TGI (SW-620 colon): > 100 µM; TGI (CAKI-1 renal): > 100 µM; TGI (CCRF-CEM leukemia): > 100 µM; TGI (HCT-116 colon): > 100 µM; TGI (HCT-15 colon): > 100 µM; TGI (HT29 colon): > 100 µM; TGI (HOP-62 NSCLC): > 100 µM; TGI (UACC-257 melanoma): > 100 µM; TGI (IGROV1 ovarian): > 100 µM; TGI (KM12 colon): > 100 µM; TGI (MDA-MB-231 breast): > 100 µM; TGI (MALME-3M melanoma): 50.8 µM; TGI (786-0 renal): > 100 µM; TGI (RPMI-8226 leukemia): > 100 µM; TGI (OVCAR-4 ovarian): > 100 µM; TGI (SK-MEL-28 melanoma): > 100 µM; TGI (SK-OV-3 ovarian): > 100 µM; TGI (NCI-H522 lung): > 100 µM; TGI (SR leukemia): 79.9 µM; TGI (BT-549 breast): > 100 µM; TGI (OVCAR-5 ovarian): > 100 µM; TGI (ACHN renal): > 100 µM; TGI (U251 CNS): > 100 µM; TGI (OVCAR-8 ovarian): > 100 µM; TGI (DU-145 prostate): > 100 µM; TGI (SN12C renal): > 100 µM; TGI (LOX IMVI melanoma): > 100 µM; TGI (MDA-MB-435): > 100 µM; TGI (A498 renal): > 100 µM; TGI (UO-31 renal): > 100 µM; TGI (UACC-62 melanoma): 59.4 µM; TGI (EKVX NSCLC): > 100 µM; TGI (MCF7 breast): > 100 µM; TGI (SF-268 CNS): > 100 µM; TGI (K-562 leukemia): > 100 µM; TGI (SF-295 CNS): > 100 µM; TGI (NCI-H23 lung): > 100 µM; TGI (HCC-2998 colon): > 100 µM; TGI (COLO 205 colon): > 100 µM; TGI (A549 NSCLC): > 100 µM; TGI (SF-539 CNS): > 100 µM; TGI (HS 578T breast): > 100 µM; TGI (HOP-92 NSCLC): > 100 µM

Q: Which TGI (OVCAR-3 ovarian) does the source give for `CC1=C(C(=O)N(C)c2ccc(Cl)c(C(=O)OC(C)C)c2)SCCO1` here?
A: > 100 µM

Q: And the TGI (TK-10 renal)?
A: > 100 µM

Q: And the TGI (SNB-75 CNS)?
A: 90.8 µM

Q: What about the TGI (PC-3 prostate) of the same compound?
A: > 100 µM

Q: And the TGI (NCI/ADR-RES ovarian)?
A: > 100 µM

Q: What about the TGI (M14 melanoma) of the same compound?
A: > 100 µM

Q: And the TGI (MOLT-4 leukemia)?
A: > 100 µM

Q: And the TGI (NCI-H460 lung)?
A: > 100 µM

Q: What about the TGI (SK-MEL-5 melanoma) of the same compound?
A: > 100 µM

Q: What about the TGI (NCI-H226 lung) of the same compound?
A: > 100 µM

Q: And the TGI (SNB-19 CNS)?
A: > 100 µM

Q: What about the TGI (SW-620 colon) of the same compound?
A: > 100 µM

Q: What about the TGI (CAKI-1 renal) of the same compound?
A: > 100 µM

Q: And the TGI (CCRF-CEM leukemia)?
A: > 100 µM

Q: And the TGI (HCT-116 colon)?
A: > 100 µM

Q: What about the TGI (HCT-15 colon) of the same compound?
A: > 100 µM

Q: What about the TGI (HT29 colon) of the same compound?
A: > 100 µM

Q: And the TGI (UACC-257 melanoma)?
A: > 100 µM

Q: What about the TGI (IGROV1 ovarian) of the same compound?
A: > 100 µM

Q: What about the TGI (KM12 colon) of the same compound?
A: > 100 µM

Q: What about the TGI (MDA-MB-231 breast) of the same compound?
A: > 100 µM

Q: And the TGI (MALME-3M melanoma)?
A: > 100 µM

Q: And the TGI (786-0 renal)?
A: > 100 µM

Q: What about the TGI (RPMI-8226 leukemia) of the same compound?
A: > 100 µM

Q: What about the TGI (HL-60(TB) leukemia) of the same compound?
A: > 100 µM

Q: And the TGI (OVCAR-4 ovarian)?
A: > 100 µM

Q: What about the TGI (SK-MEL-28 melanoma) of the same compound?
A: > 100 µM

Q: What about the TGI (T-47D breast) of the same compound?
A: > 100 µM

Q: And the TGI (SK-OV-3 ovarian)?
A: > 100 µM

Q: What about the TGI (NCI-H522 lung) of the same compound?
A: > 100 µM

Q: What about the TGI (BT-549 breast) of the same compound?
A: > 100 µM

Q: And the TGI (OVCAR-5 ovarian)?
A: > 100 µM

Q: What about the TGI (ACHN renal) of the same compound?
A: > 100 µM

Q: And the TGI (U251 CNS)?
A: > 100 µM

Q: And the TGI (OVCAR-8 ovarian)?
A: > 100 µM

Q: And the TGI (DU-145 prostate)?
A: > 100 µM

Q: And the TGI (SN12C renal)?
A: > 100 µM

Q: What about the TGI (LOX IMVI melanoma) of the same compound?
A: > 100 µM

Q: What about the TGI (MDA-MB-435) of the same compound?
A: > 100 µM

Q: What about the TGI (A498 renal) of the same compound?
A: > 100 µM

Q: What about the TGI (UO-31 renal) of the same compound?
A: > 100 µM

Q: And the TGI (UACC-62 melanoma)?
A: > 100 µM

Q: What about the TGI (SK-MEL-2 melanoma) of the same compound?
A: > 100 µM

Q: What about the TGI (EKVX NSCLC) of the same compound?
A: > 100 µM

Q: And the TGI (MCF7 breast)?
A: > 100 µM

Q: What about the TGI (SF-268 CNS) of the same compound?
A: > 100 µM

Q: What about the TGI (K-562 leukemia) of the same compound?
A: > 100 µM

Q: And the TGI (SF-295 CNS)?
A: > 100 µM

Q: And the TGI (NCI-H23 lung)?
A: > 100 µM

Q: What about the TGI (HCC-2998 colon) of the same compound?
A: > 100 µM

Q: And the TGI (COLO 205 colon)?
A: > 100 µM

Q: And the TGI (A549 NSCLC)?
A: > 100 µM

Q: What about the TGI (SF-539 CNS) of the same compound?
A: > 100 µM

Q: And the TGI (HS 578T breast)?
A: > 100 µM

Q: What about the TGI (HOP-92 NSCLC) of the same compound?
A: > 100 µM

Q: Which results are given for `O=CN1CCN(C(=O)c2ccc(Cl)c(Cl)c2)C1=S`?
A: TGI (OVCAR-3 ovarian): 28.3 µM; TGI (TK-10 renal): 30.1 µM; TGI (SNB-75 CNS): 32.3 µM; TGI (PC-3 prostate): 31.9 µM; TGI (RXF 393 renal): 35 µM; TGI (NCI/ADR-RES ovarian): > 100 µM; TGI (M14 melanoma): 31.4 µM; TGI (MOLT-4 leukemia): 53.8 µM; TGI (NCI-H460 lung): 36.2 µM; TGI (NCI-H226 lung): 39.8 µM; TGI (SNB-19 CNS): 31.7 µM; TGI (SW-620 colon): 42.1 µM; TGI (CAKI-1 renal): 28.1 µM; TGI (CCRF-CEM leukemia): 24.2 µM; TGI (HCT-116 colon): 30.1 µM; TGI (HCT-15 colon): 43 µM; TGI (HT29 colon): 38.4 µM; TGI (HOP-62 NSCLC): 32.9 µM; TGI (UACC-257 melanoma): 31.7 µM; TGI (IGROV1 ovarian): 30.9 µM; TGI (KM12 colon): 30.3 µM; TGI (MDA-MB-231 breast): 30.8 µM; TGI (MALME-3M melanoma): 39.1 µM; TGI (786-0 renal): 17.6 µM; TGI (RPMI-8226 leukemia): 7.74 µM; TGI (HL-60(TB) leukemia): 45.7 µM; TGI (OVCAR-4 ovarian): 33.6 µM; TGI (SK-MEL-28 melanoma): 38.3 µM; TGI (T-47D breast): 58 µM; TGI (SK-OV-3 ovarian): 32.9 µM; TGI (NCI-H522 lung): 28.7 µM; TGI (BT-549 breast): 33.7 µM; TGI (OVCAR-5 ovarian): 32.4 µM; TGI (ACHN renal): 31.6 µM; TGI (U251 CNS): 28 µM; TGI (OVCAR-8 ovarian): 29.4 µM; TGI (DU-145 prostate): 30.9 µM; TGI (SN12C renal): 27.8 µM; TGI (LOX IMVI melanoma): 25.9 µM; TGI (MDA-MB-435): 31.8 µM; TGI (A498 renal): 29.8 µM; TGI (UACC-62 melanoma): 30.4 µM; TGI (SK-MEL-2 melanoma): 30.6 µM; TGI (EKVX NSCLC): 31.7 µM; TGI (MCF7 breast): 25 µM; TGI (SF-268 CNS): 39.3 µM; TGI (K-562 leukemia): > 100 µM; TGI (SF-295 CNS): 34.4 µM; TGI (NCI-H23 lung): 41 µM; TGI (HCC-2998 colon): 32.7 µM; TGI (COLO 205 colon): 37.8 µM; TGI (A549 NSCLC): 35 µM; TGI (SF-539 CNS): 37 µM; TGI (HS 578T breast): > 100 µM

— PubChem BioAssay (NCI)
